Assay results published in patent US20180344763A1, “METHODS FOR ADVERSELY AFFECTING BIOFILMS” (Commonwealth Scientific and Industrial Research Organisation, priority 2015, published 2018).
≈ marks a conversion by molar mass, not a printed value.

Assays:
C. albicans biofilms = experiment: Antimicrobial susceptibility of single biofilm (XTT, biofilm MIC80); format: cell-based, Candida albicans; details: for Biofilm MIC80: C. albicans single species biofilm, 48 h treatment; for Activity against C. albicans monomicrobial biofilms: compared with planktonic growth
Description: (§1) Single biofilms of S. aureus or C. albicans were set up in 96-well microplates as described above. After overnight incubation, the cell suspensions were aspirated and the wells were rinsed twice with 100 μL of PBS per well to remove non-adherent cells. Two hundred microlitres of antimicrobial agents were added into each well, and the treatments lasted for 18 h for S. aureus and 48 h for C. albicans. After the treatment, the suspensions were removed and the microwells were washed twice with PBS. Two hundred microlitres of 2, 3-bis (2-methoxy-4-nitro-5-sulfophenyl)-5-[(phenylamino) carbonyl]-2H-tetrazolium hydroxide (XTT, 0.5 mg/L) solution were added into each well and the microplate were incubated at 37° C. in the dark for 2 h. One hundred microliters of XTT solution were transferred to a new microplate and read at OD492. Alternatively, the efficacy of antimicrobial agents against biofilms was determined based on the reduction in viable counts after exposure to antimicrobials. The ratio of cell survival (cell density after antimicrobial treatment) relative to antimicrobial-free culture (cell density of the drug-free biofilms) (×100) was calculated.

C. albicans [1] = experiment: Broth microdilution MIC, planktonic cells; format: cell-based, Candida albicans; details: C. albicans single species culture, RPMI-1640, 48 h
Description: (§2) Minimum inhibitory concentrations (MICs) for antibacterial and antifungal agents were determined using the broth microdilution method according to CLSI guidelines M07-A9 (for S. aureus) and M27-A3 (for C. albicans), but replacing Muller-Hinton broth with RPMI-1640 for antibacterial MIC testing. One hundred microlitres of two-fold serial dilutions of the drugs prepared in RPMI-1640 were added into the wells of 96-well microplates. Exponentially grown cultures were diluted in RPMI-1640 to a density of ˜1×10^3 CFU/mL for C. albicans and ˜1×10^6 CFU/mL for S. aureus and 100 μL were added to each well. Microplates were incubated for 18 h at 35° C. for S. aureus and 48 h for C. albicans. Bacterial or fungal growth was examined visually with the aid of a mirror reader. The antibacterial MIC was defined as the lowest concentration resulting in complete growth inhibition. The MIC of antifungals was read as the lowest concentration that prevents discernible growth for amphotericin B or polymers, or as the lowest concentration that inhibits at least 50% of fungal growth for fluconazole and caspofungin, corresponding to a score of zero or two in the CLSI M27-A3 protocol.

S. aureus biofilms = experiment: Antimicrobial susceptibility of single biofilm (XTT, biofilm MIC80); format: cell-based, Staphylococcus aureus; details: S. aureus single species biofilm, 18 h treatment
Description: as §1

[2] = system: C. albicans 24 h single biofilms; experiment: Catheter lock solution re-growth assay (MBEC); format: cell-based, Candida albicans; details: C. albicans 24 h biofilm, 18 h exposure
Description: (§3) Biofilms were washed three times with saline to remove the residual antimicrobial agents. Two hundred microliter volumes of TSB were then added to each well and microplates were incubated at 35° C. for a further 48 h. A microplate shaker (speed 2) ([…], Flow laboratories, Germany) was used to facilitate the multiplication and release of any living cells remaining in the biofilms. After 48 h, 150 μL of the contents in each well in the microplate was transferred to a U-bottom microplate and examined visually for turbidity. The lowest concentration of antimicrobial agents corresponding to clear wells was defined as the minimum biofilm eradication concentration (MBEC) for successful use as CLS.

[3] = system: C. albicans-S. aureus polymicrobial biofilms; experiment: Catheter lock solution re-growth assay (MBEC); format: cell-based, Candida albicans and Staphylococcus aureus; details: polymicrobial 24 h biofilm, 18 h exposure
Description: as §3

[4] = system: S. aureus 24 h single biofilms; experiment: Catheter lock solution re-growth assay (MBEC); format: cell-based, Staphylococcus aureus; details: S. aureus 24 h biofilm, 18 h exposure
Description: as §3

C. albicans [5] = experiment: Planktonic MIC in presence or absence of isolated biofilm matrix; format: cell-based, Candida albicans
Description: as §2
(§4) Extracellular matrix was isolated from Candida or polymicrobial biofilms following the method reported in PLoS pathogens 2012, 8:e1002848. Biofilms were established by growing cultures in 6-well TCPS microplates for 48 h at 37° C. Supernatants were carefully removed from each well and the biofilms were washed once with sterile distilled water. One millilitre of distilled water was added into each well, and the biofilms were removed using a cell scraper. This step was repeated three times. The suspensions containing dislodged biofilms were then transferred into a 50 ml Falcon tube, sonicated with a Branson Sonicator for 10 min (duty cycle constant, output 20%). The suspensions were vortexed for 2 min at full speed (4×30 s), prior to centrifugation at 6000 rpm for 15 min for 5 times. The supernatants containing the extracellular matrix were removed and stored at −20° C. […]

S. aureus [6] = experiment: Broth microdilution MIC, planktonic cells; format: cell-based; details: Staphylococcus aureus; S. aureus single species culture, RPMI-1640, 18 h
S. aureus [7] = experiment: Planktonic MIC in presence or absence of isolated biofilm matrix; format: cell-based, Staphylococcus aureus
Description: as §2, §4

Compound: C[C@@H]1[C@H](O)[C@@H](C)/C=C/C=C/C=C/C=C/C=C/C=C/C=C/[C@H](O[C@@H]2O[C@H](C)[C@@H](O)[C@H](N)[C@@H]2O)C[C@@H]2O[C@](O)(C[C@@H](O)C[C@@H](O)[C@H](O)CC[C@@H](O)C[C@@H](O)CC(=O)O[C@H]1C)C[C@H](O)[C@H]2C(=O)O [Amphotericin B, amphotericin B]
- Biofilm MIC80 (C. albicans biofilms): 1 µg/mL
- Activity against C. albicans monomicrobial biofilms (C. albicans biofilms): retaining their activities
- Planktonic MIC (C. albicans [1]): 1 µg/mL

Compound: CC[C@H](C)C[C@H](C)CCCCCCCCC(=O)N[C@H]1C[C@@H](O)[C@@H](NCCN)NC(=O)[C@@H]2[C@@H](O)CCN2C(=O)[C@H]([C@H](O)CCN)NC(=O)[C@H]([C@H](O)[C@@H](O)c2ccc(O)cc2)NC(=O)[C@@H]2C[C@@H](O)CN2C(=O)[C@H]([C@@H](C)O)NC1=O [Caspofungin, caspofungin]
- Biofilm MIC80 (C. albicans biofilms): 0.12 µg/mL
- Activity against C. albicans monomicrobial biofilms (C. albicans biofilms): retaining their activities
- MIC (C. albicans [1]; Candida albicans): 1 µg/mL (≈ 0.915 µM)

Compound: O=C(O)c1cn(C2CC2)c2cc(N3CCNCC3)c(F)cc2c1=O [Ciprofloxacin, ciprofloxacin]
- Biofilm MIC80 (S. aureus biofilms): >1024 µg/mL

Compound: CCO [Ethanol, ethanol]
- MBEC as catheter lock solution [2]: 20% (V/V)
- MBEC as catheter lock solution [3]: 20% (V/V)
- MBEC as catheter lock solution ([3]; listed as ethanol): 20 % (V/V)
- MBEC as catheter lock solution [4]: 20% (V/V)

Compound: OC(Cn1cncn1)(Cn1cncn1)c1ccc(F)cc1F [Fluconazole, fluconazole]
- Increase in MIC in presence of biofilm matrix (C. albicans [5]; C. albicans or polymicrobial biofilm matrix): 16 fold
- MIC, C. albicans biofilm matrix (C. albicans [5]; in presence of C. albicans biofilm matrix): 8 µg/mL
- MIC, polymicrobial biofilm matrix (C. albicans [5]; in presence of polymicrobial biofilm matrix): 8 µg/mL
- Biofilm MIC80 (C. albicans biofilms): >1024 µg/mL

Compound: Cc1onc(-c2ccccc2)c1C(=O)N[C@@H]1C(=O)N2[C@@H]1SC(C)(C)[C@@H]2C(=O)O [Oxacillin, oxacillin]
- Biofilm MIC80 (S. aureus biofilms): >1024 µg/mL
- MIC (S. aureus [6]): 0.06 µg/mL (≈ 0.149 µM)

Compound: CO[C@H]1/C=C/O[C@@]2(C)Oc3c(C)c(O)c4c(O)c(c(/C=N/N5CCN(C)CC5)c(O)c4c3C2=O)NC(=O)/C(C)=C\C=C\[C@H](C)[C@H](O)[C@@H](C)[C@@H](O)[C@@H](C)[C@H](OC(C)=O)[C@@H]1C [Rifampicin, rifampicin]
- Biofilm MIC80 (S. aureus biofilms): >1024 µg/mL
- MIC (S. aureus [6]): 0.015 µg/mL (≈ 0.0182 µM)

Compound: CN[C@H](CC(C)C)C(=O)N[C@H]1C(=O)N[C@@H](CC(N)=O)C(=O)N[C@H]2C(=O)N[C@H]3C(=O)N[C@H](C(=O)N[C@H](C(=O)O)c4cc(O)cc(O)c4-c4cc3ccc4O)[C@H](O)c3ccc(c(Cl)c3)Oc3cc2cc(c3O[C@@H]2O[C@H](CO)[C@@H](O)[C@H](O)[C@H]2O[C@H]2C[C@](C)(N)[C@H](O)[C@H](C)O2)Oc2ccc(cc2Cl)[C@H]1O [Vancomycin, vancomycin]
- MIC, C. albicans biofilm matrix (S. aureus [7]; S. aureus, in presence of C. albicans biofilm matrix): 1 µg/mL
- MIC, polymicrobial biofilm matrix (S. aureus [7]; S. aureus, in presence of polymicrobial biofilm matrix): 2 µg/mL
- MIC (S. aureus [7]; Staphylococcus aureus, read-out: MIC, medium only): 2 µg/mL (≈ 1.38 µM)
- Biofilm MIC80 (S. aureus biofilms): >1024 µg/mL
- MIC (S. aureus [6]): 1 µg/mL (≈ 0.69 µM)
